Experimental data: article PMC5218480 (PLoS ONE, 2017)

System: MV-4-11 cells
Experiment: Gene expression microarray analysis (Affymetrix PrimeView) and GSEA
Format: cell-based, human
Parameters: RFU PODN (11730768_x_at) / Fold change /veh PODN (11730768_x_at) / RFU LINC00158 (11744669_a_at) / Fold change /veh LINC00158 (11744669_a_at) / RFU DUSP10 (11751237_a_at) / Fold change /veh DUSP10 (11751237_a_at) / RFU ID3 (11757404_x_at) / Fold change /veh ID3 (11757404_x_at) / RFU PLEKHG5 (11737974_s_at) / Fold change /veh PLEKHG5 (11737974_s_at) / RFU LRRC4B (11730491_at) / Fold change /veh LRRC4B (11730491_at) / RFU GIMAP4 (11747438_a_at) / Fold change /veh GIMAP4 (11747438_a_at) / RFU KRT8 (11758183_x_at) / Fold change /veh KRT8 (11758183_x_at) / RFU CNN1 (11734310_a_at) / Fold change /veh CNN1 (11734310_a_at) / RFU VPS37D (11726825_at) / Fold change /veh VPS37D (11726825_at) / RFU C10orf10 (11716522_x_at) / Fold change /veh C10orf10 (11716522_x_at) / RFU KIR2DL2 /// KIR2DL4 /// KIR2DL5A /// KIR2DL5B /// KIR2DS1 /// KIR2DS2 /// KIR2DS3 /// KIR2DS4 /// KIR3DL3 /// KIR3DL3 /// KIR3DS1 (11738374_at) / Fold change /veh KIR2DL2 /// KIR2DL4 /// KIR2DL5A /// KIR2DL5B /// KIR2DS1 /// KIR2DS2 /// KIR2DS3 /// KIR2DS4 /// KIR3DL3 /// KIR3DL3 /// KIR3DS1 (11738374_at) / RFU C1QL1 (11718748_at) / Fold change /veh C1QL1 (11718748_at) / RFU TMPRSS4 (11747572_a_at) / Fold change /veh TMPRSS4 (11747572_a_at) / RFU HAMP (11756126_x_at) / Fold change /veh HAMP (11756126_x_at) / RFU RNFT2 (11725882_a_at) / Fold change /veh RNFT2 (11725882_a_at) / RFU NR4A2 (11747474_a_at) / Fold change /veh NR4A2 (11747474_a_at) / RFU ABCC12 (11746883_a_at) / Fold change /veh ABCC12 (11746883_a_at) / RFU TMEM136 (11760407_x_at) / Fold change /veh TMEM136 (11760407_x_at) / RFU CLDN22 /// WWC2 (11732394_at) / Fold change /veh CLDN22 /// WWC2 (11732394_at) / RFU HLA-DPB1 (11760878_x_at) / Fold change /veh HLA-DPB1 (11760878_x_at) / RFU SPINT1 (11716480_a_at) / Fold change /veh SPINT1 (11716480_a_at) / RFU GAP43 (11754022_s_at) / Fold change /veh GAP43 (11754022_s_at) / RFU A4GNT (11735810_at) / Fold change /veh A4GNT (11735810_at) / RFU PRB3 (11715151_x_at) / Fold change /veh PRB3 (11715151_x_at) / RFU TUBB4B (11761932_at) / Fold change /veh TUBB4B (11761932_at) / RFU CAPN14 (11732068_a_at) / Fold change /veh CAPN14 (11732068_a_at) / RFU TMCC2 (11721928_a_at) / Fold change /veh TMCC2 (11721928_a_at) / RFU IRGQ (11745062_a_at) / Fold change /veh IRGQ (11745062_a_at) / RFU FAM174B (11720279_a_at) / Fold change /veh FAM174B (11720279_a_at) / RFU TMPRSS4 (11748680_a_at) / Fold change /veh TMPRSS4 (11748680_a_at) / RFU FAM212B (11763350_a_at) / Fold change /veh FAM212B (11763350_a_at) / RFU PLEKHG5 (11743358_a_at) / Fold change /veh PLEKHG5 (11743358_a_at) / RFU ZSCAN30 (11745921_a_at) / Fold change /veh ZSCAN30 (11745921_a_at) / RFU CMKLR1 (11741424_a_at) / Fold change /veh CMKLR1 (11741424_a_at) / RFU LOC101060620 /// MAPK8IP1 (11723275_at) / Fold change /veh LOC101060620 /// MAPK8IP1 (11723275_at) / RFU SPTSSB (11747773_x_at) / Fold change /veh SPTSSB (11747773_x_at) / RFU PRSS12 (11739890_at) / Fold change /veh PRSS12 (11739890_at) / RFU BIN1 (11741810_x_at) / Fold change /veh BIN1 (11741810_x_at) / RFU WNT11 (11732464_a_at) / Fold change /veh WNT11 (11732464_a_at) / RFU C10orf10 (11716521_a_at) / Fold change /veh C10orf10 (11716521_a_at) / RFU C5orf56 (11738089_at) / Fold change /veh C5orf56 (11738089_at) / RFU CYB561 (11721691_x_at) / Fold change /veh CYB561 (11721691_x_at) / RFU ANKRD19P (11752326_a_at) / Fold change /veh ANKRD19P (11752326_a_at) / RFU OR2T12 /// OR2T33 /// OR2T8 (11738714_s_at) / Fold change /veh OR2T12 /// OR2T33 /// OR2T8 (11738714_s_at) / RFU VCAN (11748164_a_at) / Fold change /veh VCAN (11748164_a_at) / RFU JSRP1 (11732532_at) / Fold change /veh JSRP1 (11732532_at) / RFU KRTAP10-11 (11738290_x_at) / Fold change /veh KRTAP10-11 (11738290_x_at) / RFU MYO3A (11730013_a_at) / Fold change /veh MYO3A (11730013_a_at) / RFU EBF3 (11725865_a_at) / Fold change /veh EBF3 (11725865_a_at) / RFU CAMK2N1 (11719241_x_at) / Fold change /veh CAMK2N1 (11719241_x_at) / RFU C5orf56 (11738088_a_at) / Fold change /veh C5orf56 (11738088_a_at) / RFU OLFML3 (11715873_a_at) / Fold change /veh OLFML3 (11715873_a_at) / RFU LOC100653217 /// NTM (11731650_a_at) / Fold change /veh LOC100653217 /// NTM (11731650_a_at) / RFU MAPK11 (11762145_a_at) / Fold change /veh MAPK11 (11762145_a_at) / RFU FIZ1 (11724087_x_at) / Fold change /veh FIZ1 (11724087_x_at) / RFU OASL (11726364_x_at) / Fold change /veh OASL (11726364_x_at) / RFU SOX15 (11748057_x_at) / Fold change /veh SOX15 (11748057_x_at) / RFU CD79A (11719716_a_at) / Fold change /veh CD79A (11719716_a_at) / RFU HIST1H1D (11736915_at) / Fold change /veh HIST1H1D (11736915_at) / RFU CASKIN2 (11723855_a_at) / Fold change /veh CASKIN2 (11723855_a_at) / RFU LOC730098 (11760151_x_at) / Fold change /veh LOC730098 (11760151_x_at) / RFU OR4N2 (11742367_at) / Fold change /veh OR4N2 (11742367_at) / RFU PRRT2 (11749266_a_at) / Fold change /veh PRRT2 (11749266_a_at) / RFU SNX32 (11753110_a_at) / Fold change /veh SNX32 (11753110_a_at) / RFU CDHR5 (11726645_a_at) / Fold change /veh CDHR5 (11726645_a_at) / RFU RCAN1 (11760418_a_at) / Fold change /veh RCAN1 (11760418_a_at) / RFU FAM167A (11723789_a_at) / Fold change /veh FAM167A (11723789_a_at) / RFU FAM26E (11764081_at) / Fold change /veh FAM26E (11764081_at) / RFU ISYNA1 (11749810_s_at) / Fold change /veh ISYNA1 (11749810_s_at) / RFU ACY1 (11761880_at) / Fold change /veh ACY1 (11761880_at) / RFU 11764098_at / Fold change /veh 11764098_at / RFU SAMD14 (11745864_x_at) / Fold change /veh SAMD14 (11745864_x_at) / RFU NPB (11741838_a_at) / Fold change /veh NPB (11741838_a_at) / RFU TMPRSS6 (11731388_a_at) / Fold change /veh TMPRSS6 (11731388_a_at) / RFU KRTAP10-2 (11738614_at) / Fold change /veh KRTAP10-2 (11738614_at) / RFU ARHGAP8 /// PRR5-ARHGAP8 (11727945_x_at) / Fold change /veh ARHGAP8 /// PRR5-ARHGAP8 (11727945_x_at) / RFU KRTAP5-7 /// NADSYN1 (11734609_at) / Fold change /veh KRTAP5-7 /// NADSYN1 (11734609_at) / RFU RASL12 (11751679_a_at) / Fold change /veh RASL12 (11751679_a_at) / RFU CDKN2B (11736163_a_at) / Fold change /veh CDKN2B (11736163_a_at) / RFU PRF1 (11729649_at) / Fold change /veh PRF1 (11729649_at) / RFU, ZNF638 /// ZNF638-IT1 / Fold change vs veh, ZNF638 /// ZNF638-IT1 / RFU, PANK3 / Fold change vs veh, PANK3 / RFU, SH3YL1 / Fold change vs veh, SH3YL1 / RFU, ZEB2 / Fold change vs veh, ZEB2 / RFU, NRIP1 / Fold change vs veh, NRIP1 / RFU, PTTG1IP / Fold change vs veh, PTTG1IP / RFU, CAPN2 / Fold change vs veh, CAPN2 / RFU, MED14 / Fold change vs veh, MED14 / RFU, SNORA58 / Fold change vs veh, SNORA58 / RFU, C1orf63 / Fold change vs veh, C1orf63 / RFU, LRRFIP1 / Fold change vs veh, LRRFIP1 / RFU, NDUFAF7 / Fold change vs veh, NDUFAF7 / RFU, SLC12A2 / Fold change vs veh, SLC12A2 / RFU, IBTK / Fold change vs veh, IBTK / RFU, ESF1 / Fold change vs veh, ESF1 / Fold change vs veh, TMEM50B / RFU, TAOK1 / Fold change vs veh, TAOK1 / RFU, ACBD3 / Fold change vs veh, ACBD3 / RFU, TMA16 / Fold change vs veh, TMA16 / RFU, RWDD3 / Fold change vs veh, RWDD3 / RFU, BCAT1 / Fold change vs veh, BCAT1 / RFU, EDEM3 / Fold change vs veh, EDEM3 / RFU, TMEM33 / Fold change vs veh, TMEM33 / RFU, WDR75 / Fold change vs veh, WDR75 / RFU, AHCTF1 / Fold change vs veh, AHCTF1 / RFU, TFRC / Fold change vs veh, TFRC / RFU, ZDHHC17 / Fold change vs veh, ZDHHC17 / RFU, NOM1 / Fold change vs veh, NOM1 / RFU, ARL8B / Fold change vs veh, ARL8B / RFU, ZBTB11 / Fold change vs veh, ZBTB11 / RFU, TAMM41 / Fold change vs veh, TAMM41 / RFU, KIAA1704 /// LOC100996395 / Fold change vs veh, KIAA1704 /// LOC100996395 / RFU, ING1 / Fold change vs veh, ING1 / RFU, TRMT61B / Fold change vs veh, TRMT61B / RFU, FUBP3 / Fold change vs veh, FUBP3 / RFU, TP53 / Fold change vs veh, TP53 / RFU, TNKS2 / Fold change vs veh, TNKS2 / RFU, ZFP14 / Fold change vs veh, ZFP14 / RFU, ACTR2 / Fold change vs veh, ACTR2 / RFU, PPP3R1 / Fold change vs veh, PPP3R1 / RFU, PIK3R1 / Fold change vs veh, PIK3R1 / RFU, HNRNPA1 / Fold change vs veh, HNRNPA1 / RFU, RNF170 / Fold change vs veh, RNF170 / RFU, ZNF28 / Fold change vs veh, ZNF28 / RFU, RNGTT / Fold change vs veh, RNGTT / RFU, OGT / Fold change vs veh, OGT / RFU, BRD1 / Fold change vs veh, BRD1 / RFU, MARS / Fold change vs veh, MARS / RFU, ZNF655 / Fold change vs veh, ZNF655 / RFU, FAHD1 / Fold change vs veh, FAHD1 / RFU, BDP1 / Fold change vs veh, BDP1 / RFU, LRRCC1 / Fold change vs veh, LRRCC1 / RFU, ARID1A / Fold change vs veh, ARID1A / RFU, ZNF146 / Fold change vs veh, ZNF146 / RFU, ZNF330 / Fold change vs veh, ZNF330 / RFU, GPN3 / Fold change vs veh, GPN3 / RFU, C9orf123 / Fold change vs veh, C9orf123 / RFU, N4BP2L2 / Fold change vs veh, N4BP2L2 / RFU, ARFIP1 / Fold change vs veh, ARFIP1 / RFU, FAM179B / Fold change vs veh, FAM179B / RFU, BCL10 / Fold change vs veh, BCL10 / RFU, UHRF1BP1L / Fold change vs veh, UHRF1BP1L / RFU, BET1 / Fold change vs veh, BET1 / RFU, CNOT2 / Fold change vs veh, CNOT2 / RFU, ZNF268 / Fold change vs veh, ZNF268 / Fold change vs veh, ZNF507 / RFU, DGCR2 / Fold change vs veh, DGCR2 / RFU, WDSUB1 / Fold change vs veh, WDSUB1 / Fold change vs veh, HSP90B1 /// MIR3652 / RFU, ADSS / Fold change vs veh, ADSS / RFU, GK / Fold change vs veh, GK / RFU, ZNF148 / Fold change vs veh, ZNF148 / RFU, TAF9 / Fold change vs veh, TAF9 / RFU, SLC1A5 / Fold change vs veh, SLC1A5 / RFU, SLMO2 / Fold change vs veh, SLMO2 / RFU, ABCC4 / Fold change vs veh, ABCC4 / RFU, LOC101060439 /// RAP1B / Fold change vs veh, LOC101060439 /// RAP1B / RFU, RFX7 / Fold change vs veh, RFX7 / RFU, GTPBP10 / Fold change vs veh, GTPBP10 / RFU, CNEP1R1 / Fold change vs veh, CNEP1R1 / RFU, BIVM-ERCC5 /// ERCC5 / Fold change vs veh, BIVM-ERCC5 /// ERCC5 / RFU, ILF3 / Fold change vs veh, ILF3 / RFU 11762660_at / Fold change /veh 11762660_at / RFU VCAN (11757783_s_at) / Fold change /veh VCAN (11757783_s_at) / RFU DDX43 (11728927_at) / Fold change /veh DDX43 (11728927_at) / RFU KRT8 (11758188_x_at) / Fold change /veh KRT8 (11758188_x_at) / RFU NKD1 (11759106_at) / Fold change /veh NKD1 (11759106_at) / RFU SRD5A1 (11742802_a_at) / Fold change /veh SRD5A1 (11742802_a_at) / RFU TPSAB1 /// TPSB2 (11721975_s_at) / Fold change /veh TPSAB1 /// TPSB2 (11721975_s_at) / RFU GSTM3 (11746129_a_at) / Fold change /veh GSTM3 (11746129_a_at) / RFU IL23R (11737362_x_at) / Fold change /veh IL23R (11737362_x_at) / RFU TMEM51 (11727254_a_at) / Fold change /veh TMEM51 (11727254_a_at) / RFU PIWIL2 (11732686_x_at) / Fold change /veh PIWIL2 (11732686_x_at) / RFU ORM1 (11744905_x_at) / Fold change /veh ORM1 (11744905_x_at) / RFU CCDC152 (11743942_at) / Fold change /veh CCDC152 (11743942_at) / RFU ECM1 (11717891_a_at) / Fold change /veh ECM1 (11717891_a_at) / RFU IL23R (11748794_a_at) / Fold change /veh IL23R (11748794_a_at) / RFU TNFAIP8L3 (11732012_x_at) / Fold change /veh TNFAIP8L3 (11732012_x_at) / RFU MBOAT4 (11741988_at) / Fold change /veh MBOAT4 (11741988_at) / RFU 11764193_at / Fold change /veh 11764193_at / RFU TMEM53 (11763286_at) / Fold change /veh TMEM53 (11763286_at) / RFU MAGEB2 (11727129_at) / Fold change /veh MAGEB2 (11727129_at) / RFU TMEM200A (11744735_a_at) / Fold change /veh TMEM200A (11744735_a_at) / RFU CCDC152 (11751479_a_at) / Fold change /veh CCDC152 (11751479_a_at) / RFU FAM211A (11726209_a_at) / Fold change /veh FAM211A (11726209_a_at) / RFU RGS16 (11746705_a_at) / Fold change /veh RGS16 (11746705_a_at) / RFU VCAN (11755009_s_at) / Fold change /veh VCAN (11755009_s_at) / RFU RHOB (11743442_s_at) / Fold change /veh RHOB (11743442_s_at) / RFU RGS16 (11720943_a_at) / Fold change /veh RGS16 (11720943_a_at) / RFU RGS16 (11720944_at) / Fold change /veh RGS16 (11720944_at) / RFU, VPS4B / Fold change vs veh, VPS4B / RFU, CREB1 / Fold change vs veh, CREB1 / RFU, DNAJC13 / Fold change vs veh, DNAJC13 / RFU, GNAQ / Fold change vs veh, GNAQ / RFU, CDK5R1 / Fold change vs veh, CDK5R1 / RFU, ZRANB3 / Fold change vs veh, ZRANB3 / RFU, CUL4A / Fold change vs veh, CUL4A / RFU, CCNY / Fold change vs veh, CCNY / RFU, UFL1 / Fold change vs veh, UFL1 / RFU, COG3 / Fold change vs veh, COG3 / RFU, DIAPH2 / Fold change vs veh, DIAPH2 / RFU, SKA2 / Fold change vs veh, SKA2 / RFU, AFF3 / Fold change vs veh, AFF3 / RFU, LMF1 / Fold change vs veh, LMF1 / RFU, IPO11 / Fold change vs veh, IPO11 / RFU, DFFB / Fold change vs veh, DFFB / RFU, FOXP1 / Fold change vs veh, FOXP1 / RFU, CARD8 / Fold change vs veh, CARD8 / RFU, STRN3 / Fold change vs veh, STRN3 / RFU, ADK / Fold change vs veh, ADK / RFU, RASSF2 / Fold change vs veh, RASSF2 / RFU, WIPF1 / Fold change vs veh, WIPF1 / RFU, LARP1B / Fold change vs veh, LARP1B / RFU, RASA1 / Fold change vs veh, RASA1 / RFU, RB1 / Fold change vs veh, RB1 / RFU, PPFIA1 / Fold change vs veh, PPFIA1 / RFU, MAT2A / Fold change vs veh, MAT2A / RFU, CCT5 / Fold change vs veh, CCT5 / RFU, WDR92 / Fold change vs veh, WDR92 / RFU, CUX1 / Fold change vs veh, CUX1 / RFU, TTC7A / Fold change vs veh, TTC7A / RFU, TMEM135 / Fold change vs veh, TMEM135 / RFU, DEPTOR / Fold change vs veh, DEPTOR / RFU, CPM / Fold change vs veh, CPM / RFU, DNAJB6 / Fold change vs veh, DNAJB6 / RFU, CACNA2D3 / Fold change vs veh, CACNA2D3 / RFU, DTX4 / Fold change vs veh, DTX4 / RFU, TFCP2 / Fold change vs veh, TFCP2 / RFU, GMCL1 /// GMCL1P1 / Fold change vs veh, GMCL1 /// GMCL1P1 / RFU, AEBP2 / Fold change vs veh, AEBP2 / RFU, SNHG1 /// SNORD22 /// SNORD25 /// SNORD26 /// SNORD27 /// SNORD28 /// SNORD29 /// SNORD31 / Fold change vs veh, SNHG1 /// SNORD22 /// SNORD25 /// SNORD26 /// SNORD27 /// SNORD28 /// SNORD29 /// SNORD31 / Fold change (Aza/veh), C12orf56 (ProbeSet 11735607_a_at) / Fold change (ACY-1035/veh), C12orf56 (ProbeSet 11735607_a_at) / Fold change (Aza/veh), FGFR1OP (ProbeSet 11751329_s_at) / Fold change (ACY-1035/veh), FGFR1OP (ProbeSet 11751329_s_at) / Fold change (Aza/veh), VPS36 (ProbeSet 11739960_a_at) / Fold change (ACY-1035/veh), VPS36 (ProbeSet 11739960_a_at) / RFU SYPL1 (11715823_x_at) / Fold change /veh SYPL1 (11715823_x_at) / RFU IGFBP7 (11715501_s_at) / Fold change /veh IGFBP7 (11715501_s_at) / RFU REEP3 (11722064_at) / Fold change /veh REEP3 (11722064_at) / RFU IGLL1 (11728026_x_at) / Fold change /veh IGLL1 (11728026_x_at): dose or concentration left out as unconfirmed
Settings: ProbeSet 11719817_x_at; LIST B

## Nc1ncn([C@@H]2O[C@H](CO)[C@@H](O)[C@H]2O)c(=O)n1 [azacitidine]
  RFU, BET1: 81.04 RFU
